The source of these data is patent US8569267B2, “Tetracyclic tetrahydrofuran derivatives containing cyclic amine side chain” (Janssen Pharmaceutica, NV, priority 2005, dated 2013).

Experiment [1] has as its target T1, NET (norepinephrine transporter) (Rattus norvegicus, UniProt Q63380).
T1 construct: Cortex from rat brain was collected and homogenised; from tissue; host or cells: rat brain cortex
Briefly: In vitro determination of NET reuptake inhibition ([3H]Nixosetine binding, rat brain cortex). The conditions noted are these: rat brain cortex; for IC50: read-out: NET pIC50 (converted). The essentials:
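Competition curves and percentage specific binding came from scintillation counting of filter-trapped radioactivity. The membranes were rat cortical homogenate in pH 7.4 Tris buffer with 120 mM NaCl and 5 mM KCl. Test compounds competed with [3H]nisoxetine for binding.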

Experiment [2] addresses T2, human cloned 5-HT2A receptor, expressed in L929 cells (Homo sapiens, UniProt P28223).
T2 construct: expressed in transfected cells; host or cells: L929 cells
The experiment can be described thus: In vitro binding affinity for 5-HT2A receptor ([125I]R91150 radioligand binding). To be noted: human cloned 5-HT2A receptor in L929 cells, [125I]R91150; for IC50: read-out: 5-HT2A pIC50 (converted). The essentials: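 Competition radioligand binding to human cloned 5-HT2A receptor expressed in L929 cells, using [125I]R91150 with test compound at various concentrations. At equilibrium, receptor-bound radioactivity was separated from free and counted. Affinity reflects inhibition of radioligand binding.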

Experiment [3] has as its target T3, human Dopamine D2L receptor (Homo sapiens, UniProt P14416).
T3 construct: expressed in transfected cells; host or cells: CHO cells
Briefly: In vitro binding affinity for human D2L receptor ([3H]Spiperone binding). To be noted: human D2L receptor-transfected CHO cell membranes; for IC50: read-out: D2L pIC50 (converted). In outline: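 Competition curves were expressed as percent specific binding, measured by scintillation counting after filtration onto GF/B filters and ice-cold Tris washes. Test compounds competed with [3H]Spiperone, added from a 2 nmol/L dilution, for 30 min at 37° C on transfected CHO membranes in pH 7.7 Tris-HCl salt buffer. Butaclamol at 10^−6 mol/l final marked non-specific binding.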

For experiment [4], the target named is T4, human cloned 5-HT2C receptor, expressed in CHO cells (Homo sapiens, UniProt P28335).
T4 construct: expressed in transfected cells; host or cells: CHO cells
T4 sequence (P28335 33-458): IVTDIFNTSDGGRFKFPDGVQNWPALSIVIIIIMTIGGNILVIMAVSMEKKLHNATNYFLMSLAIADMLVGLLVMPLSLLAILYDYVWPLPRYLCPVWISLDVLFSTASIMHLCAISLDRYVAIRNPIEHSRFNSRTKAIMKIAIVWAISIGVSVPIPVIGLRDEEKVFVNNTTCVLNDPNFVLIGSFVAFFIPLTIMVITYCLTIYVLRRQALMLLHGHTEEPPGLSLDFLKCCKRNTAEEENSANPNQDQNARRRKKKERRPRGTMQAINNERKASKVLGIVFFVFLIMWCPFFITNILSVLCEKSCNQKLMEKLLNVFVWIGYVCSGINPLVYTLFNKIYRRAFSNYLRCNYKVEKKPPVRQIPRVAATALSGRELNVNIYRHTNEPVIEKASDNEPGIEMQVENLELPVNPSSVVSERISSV
Briefly: In vitro binding affinity for 5-HT2C receptor ([3H]mesulergine radioligand binding). The conditions noted are these: human cloned 5-HT2C receptor; for IC50: read-out: 5-HT2C pIC50 (converted). The essentials:
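Receptor-bound radioligand counted after separation from unbound label once equilibrium is reached. Test compound added across a concentration range to tissue preparation plus radioligand; inhibition of binding reflects affinity and concentration.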

SMILES strings stand for the structures. Bounds are passed on as bounds.

T3 sequence (P14416 whole entry): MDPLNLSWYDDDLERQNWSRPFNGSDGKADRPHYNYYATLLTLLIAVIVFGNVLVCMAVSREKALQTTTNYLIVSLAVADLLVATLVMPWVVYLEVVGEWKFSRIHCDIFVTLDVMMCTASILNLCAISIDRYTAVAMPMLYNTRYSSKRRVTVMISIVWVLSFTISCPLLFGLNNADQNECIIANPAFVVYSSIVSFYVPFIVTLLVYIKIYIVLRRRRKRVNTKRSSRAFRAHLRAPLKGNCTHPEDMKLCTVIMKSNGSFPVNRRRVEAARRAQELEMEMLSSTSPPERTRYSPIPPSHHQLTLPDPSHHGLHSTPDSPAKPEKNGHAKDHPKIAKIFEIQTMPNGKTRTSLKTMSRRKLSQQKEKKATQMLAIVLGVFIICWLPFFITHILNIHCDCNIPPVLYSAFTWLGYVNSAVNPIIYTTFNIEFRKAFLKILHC
T1 sequence (Q63380 1-617): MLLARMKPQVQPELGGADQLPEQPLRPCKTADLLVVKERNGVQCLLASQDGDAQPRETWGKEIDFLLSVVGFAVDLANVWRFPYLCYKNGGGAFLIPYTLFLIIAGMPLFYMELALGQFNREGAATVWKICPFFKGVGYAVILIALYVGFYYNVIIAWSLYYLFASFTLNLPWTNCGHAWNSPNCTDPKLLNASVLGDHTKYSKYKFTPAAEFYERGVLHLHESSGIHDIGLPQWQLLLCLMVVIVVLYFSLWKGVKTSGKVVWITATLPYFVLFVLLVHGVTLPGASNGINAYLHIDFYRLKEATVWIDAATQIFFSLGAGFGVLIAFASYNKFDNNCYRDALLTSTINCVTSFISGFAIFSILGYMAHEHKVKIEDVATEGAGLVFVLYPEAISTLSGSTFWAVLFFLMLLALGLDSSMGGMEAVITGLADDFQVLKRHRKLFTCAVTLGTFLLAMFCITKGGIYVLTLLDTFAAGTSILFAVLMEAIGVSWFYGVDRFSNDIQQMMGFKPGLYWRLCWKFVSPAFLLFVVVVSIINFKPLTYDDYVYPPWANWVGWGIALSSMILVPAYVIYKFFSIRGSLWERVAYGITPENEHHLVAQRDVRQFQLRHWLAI
T2 sequence (P28223 whole entry): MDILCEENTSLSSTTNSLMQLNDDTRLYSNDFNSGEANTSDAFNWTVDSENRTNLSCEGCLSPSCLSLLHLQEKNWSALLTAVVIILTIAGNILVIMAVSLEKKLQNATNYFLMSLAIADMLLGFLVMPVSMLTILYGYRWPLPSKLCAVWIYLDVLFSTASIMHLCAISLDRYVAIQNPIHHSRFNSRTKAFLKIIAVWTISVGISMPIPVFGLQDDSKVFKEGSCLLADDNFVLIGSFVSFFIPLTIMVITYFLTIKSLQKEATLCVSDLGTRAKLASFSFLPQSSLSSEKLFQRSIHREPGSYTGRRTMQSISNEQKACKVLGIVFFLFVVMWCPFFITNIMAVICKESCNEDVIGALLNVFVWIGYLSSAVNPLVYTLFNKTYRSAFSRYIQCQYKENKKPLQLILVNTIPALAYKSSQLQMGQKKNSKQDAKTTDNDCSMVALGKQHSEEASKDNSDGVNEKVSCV

Turning to `O=C(NC1CCCCC1)C1CCN(CC2CC3c4ccccc4Cc4ccc(F)cc4C3O2)CC1` (centres unmarked) [Compound 188], the IC50 in experiment [1] was more than 10000 nM; in experiment [2], less than 10 nM; in experiment [3] it was 9.77 nM; in experiment [4] it was 2.75 nM.
`O=C(Nc1ccc(F)c(Cl)c1)C1CCN(CC2CC3c4ccccc4Cc4ccc(F)cc4C3O2)CC1` (centres unmarked) [Compound 190]: the IC50 in experiment [1] was more than 10000 nM; in experiment [2], less than 10 nM; in experiment [3] it was 47.9 nM; in experiment [4] it was 2.75 nM.
In the same order, the values of `COc1ccc(C)c(NC(=O)C2CCN(CC3CC4c5ccccc5Cc5ccc(F)cc5C4O3)CC2)c1` (centres unmarked) [Compound 191] are 9120 nM, less than 10 nM, 11.7 nM and 3.47 nM.
In the same order, the values of `O=C(Nc1cccc2cnccc12)C1CCN(CC2CC3c4ccccc4Cc4ccc(F)cc4C3O2)CC1` (centres unmarked) [Compound 192] are 7410 nM, less than 10 nM, 11.2 nM and 3.8 nM.
In the same order, the values of `O=C(NC1CCCCCC1)C1CCN(CC2CC3c4ccccc4Cc4ccc(F)cc4C3O2)CC1` (centres unmarked) [Compound 193] are 5250 nM, 1.41 nM, 15.5 nM and 2.63 nM.
For `O=C(NCCC(c1ccccc1)c1ccccc1)C1CCN(CC2CC3c4ccccc4Cc4ccc(F)cc4C3O2)CC1` (centres unmarked) [Compound 198], the IC50 was 7590 nM in experiment [1], 8.13 nM in experiment [2], 25.1 nM in experiment [3] and 16.2 nM in experiment [4].
In the same order, the values of `CCN(CC)CCN(C)C(=O)C1CCN(CC2CC3c4ccccc4Cc4ccc(F)cc4C3O2)CC1` (centres unmarked) [Compound 199] are more than 10000 nM, 6.46 nM, 35.5 nM and 1.2 nM.
In the same order, the values of `O=C(C1CCN(CC2CC3c4ccccc4Cc4ccc(F)cc4C3O2)CC1)N1CCC1` (centres unmarked) [Compound 200] are more than 10000 nM, less than 10 nM, 15.5 nM and 8.13 nM.
With `O=C(C1CCN(CC2CC3c4ccccc4Cc4ccc(F)cc4C3O2)CC1)N1CC=CC1` (centres unmarked) [Compound 201], the IC50 is more than 10000 nM in experiment [1], 0.617 nM in experiment [2], 41.7 nM in experiment [3] and 10.5 nM in experiment [4].
Take `O=C(C1CCN(CC2CC3c4ccccc4Cc4ccc(F)cc4C3O2)CC1)N1CCN(c2cccc(Cl)c2)CC1` (centres unmarked) [Compound 202]: the IC50 in experiment [1] is 1620 nM; in experiment [2] it was 3.47 nM; in experiment [3], 24 nM; in experiment [4], 8.13 nM.
In the same order, the values of `COc1ccccc1N1CCN(C(=O)C2CCN(CC3CC4c5ccccc5Cc5ccc(F)cc5C4O3)CC2)CC1` (centres unmarked) [Compound 203] are 4470 nM, 3.63 nM, 16.6 nM and 3.09 nM.
In the same order, the values of `O=C(C1CCN(CC2CC3c4ccccc4Cc4ccc(F)cc4C3O2)CC1)N1CCN(CC=Cc2ccccc2)CC1` (centres unmarked) [Compound 204] are 3470 nM, 3.16 nM, 66.1 nM and 10.5 nM.
With `CC(=O)C1(c2ccccc2)CCN(C(=O)C2CCN(CC3CC4c5ccccc5Cc5ccc(F)cc5C4O3)CC2)CC1` (centres unmarked) [Compound 209], the IC50 was 5250 nM in experiment [1], 4.68 nM in experiment [2], 31.6 nM in experiment [3] and 12 nM in experiment [4].
Consider `O=C(NC1CCN(CC2CC3c4ccccc4Cc4ccc(F)cc4C3O2)CC1)c1ccc(Cl)cc1Cl` (centres unmarked) [Compound 230], for which the IC50 in experiment [1] was 5750 nM; in experiment [2] it was 2.95 nM; in experiment [3], 6.03 nM; in experiment [4], 12.6 nM.
As for `N#Cc1ccc(C(=O)NC2CCN(CC3CC4c5ccccc5Cc5ccc(F)cc5C4O3)CC2)cc1` (centres unmarked) [Compound 236], the IC50 in experiment [1] was more than 10000 nM; in experiment [2], 1.51 nM; in experiment [3], 6.76 nM; in experiment [4], 9.55 nM.
Consider `CCOC(=O)CNC(=O)NC1CCN(CC2CC3c4ccccc4Cc4ccc(F)cc4C3O2)CC1` (centres unmarked) [Compound 242], for which the IC50 in experiment [1] was 2880 nM; in experiment [2], 1.2 nM; in experiment [3], 3.98 nM; in experiment [4] it was 4.07 nM.
In the same order, the values of `Fc1ccc2c(c1)C1OC(CN3CCC(NC(=S)NCCN4CCOCC4)CC3)CC1c1ccccc1C2` (centres unmarked) [Compound 253] are 1510 nM, 2.09 nM, 24.5 nM and 10.2 nM.
With `Fc1ccc2c(c1)[C@@H]1O[C@@H](CN3CC=CC3)C[C@@H]1c1ccccc1C2.O=C(O)C(=O)O` [Compound 266], the “NET pIC50” value in experiment [1] worked out at 6.61. The “5-HT2A pIC50” value in experiment [2] is given as 8.09. For the same compound, in experiment [3], the “D2L pIC50” value was 7.42. In addition, the “5-HT2C pIC50” value in experiment [4] worked out at 8.42.
In the same order, the values of `Fc1ccc2c(c1)[C@@H]1O[C@@H](CN3CCCNCC3)C[C@@H]1c1ccccc1C2.O=C(O)C(=O)O.O=C(O)C(=O)O` [Compound 267] are 5.10, 7.84, 6.81 and 7.65.
In the same order, the values of `O=C(O)C(=O)O.OCCN1CCCN(C[C@H]2C[C@@H]3c4ccccc4Cc4ccc(F)cc4[C@@H]3O2)CC1` [Compound 269] are 5.15, 8.25, 7.83 and 8.14.
In the same order, the values of `N#CC1=CCN(C[C@H]2C[C@@H]3c4ccccc4Cc4ccc(F)cc4[C@@H]3O2)CC1.O=C(O)C(F)(F)F` [Compound 270] are 5.78, 7.18, 6.67 and 7.45.
Regarding `COCC1(O)CCN(C[C@H]2C[C@@H]3c4ccccc4Cc4ccc(F)cc4[C@@H]3O2)CC1` [Compound 272], the IC50 in experiment [1] is 724 nM; in experiment [2], 1.23 nM; in experiment [3], 2.14 nM; in experiment [4], 0.741 nM.
Turning to `CC(=O)C1(c2ccccc2)CCN(C[C@H]2C[C@@H]3c4ccccc4Cc4ccc(F)cc4[C@@H]3O2)CC1.O=C(O)C(=O)O` [Compound 273], the “NET pIC50” value in experiment [1] is less than 5. For the same compound, the “5-HT2A pIC50” value in experiment [2] was found to be 8.48. Moreover, the “D2L pIC50” value in experiment [3] was 7.71. Also, the “5-HT2C pIC50” value in experiment [4] is on record as 8.24.
In the same order, the values of `Fc1ccc2c(c1)[C@@H]1O[C@@H](CN3CCc4ccccc4C3)C[C@@H]1c1ccccc1C2.O=C(O)C(F)(F)F` [Compound 275] are 5.49, 8.52, 8.03 and 8.66.
Take `COc1cc2c(cc1OC)CN(C[C@H]1C[C@@H]3c4ccccc4Cc4ccc(F)cc4[C@@H]3O1)CC2` [Compound 276]: the IC50 in experiment [1] is more than 10000 nM; in experiment [2], 1.02 nM; in experiment [3], 17 nM; in experiment [4], 1.15 nM.
In the same order, the values of `Fc1ccc2c(c1)[C@@H]1O[C@@H](CN3CCC4(CC3)OCCO4)C[C@@H]1c1ccccc1C2` [Compound 278] are more than 10000 nM, 1.62 nM, 2.29 nM and 9.77 nM.
Turning to `CC(=O)OCCN1[C@H](C)CN(C[C@H]2C[C@@H]3c4ccccc4Cc4ccc(F)cc4[C@@H]3O2)C[C@@H]1C.O=C(O)C(=O)O` [Compound 281], the “NET pIC50” value in experiment [1] was less than 5. Besides, in experiment [2], the “5-HT2A pIC50” value turned out to be 8.39. Moreover, the “D2L pIC50” value in experiment [3] turned out to be 7.74. In addition, in experiment [4], the “5-HT2C pIC50” value amounted to 7.87.
In the same order, the values of `O=C(O)C(=O)O.OC1CCN(CC2CC3c4ccccc4Oc4ccc(Cl)cc4C3O2)CC1` (centres unmarked) [Compound 284] are less than 5, 7.98, 7.14 and 7.38.
In the same order, the values of `O=C(O)C(=O)O.OC1CCN(CC2CC3c4ccccc4Oc4ccc(Cl)cc4C3O2)CC1` (centres unmarked) [Compound 285] are less than 5, 8.56, 7.49 and 7.76.
